# In PubChem BioAssay (NCI):
#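 Interpolation was linear, between the two tested concentrations surrounding the appropriate level; five concentrations were tested over 48 hours in 96-well plates. Abbreviation: GI50, concentration required for 50% inhibition of growth. The concentration for full growth arrest is given as TGI.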
# What was measured:
# Assay in all cases: inhibition of tumour cell growth, NCI panel, 48 h
# 786-0 renal = test system: 786-0 renal
# A498 renal = test system: A498 renal
# A549 NSCLC = test system: A549 NSCLC
# ACHN renal = test system: ACHN renal
# BT-549 breast = test system: BT-549 breast
# CAKI-1 renal = test system: CAKI-1 renal
# CCRF-CEM leukemia = test system: CCRF-CEM leukemia
# COLO 205 colon = test system: COLO 205 colon
# DU-145 prostate = test system: DU-145 prostate
# EKVX NSCLC = test system: EKVX NSCLC
# HCC-2998 colon = test system: HCC-2998 colon
# HCT-116 colon = test system: HCT-116 colon
# HCT-15 colon = test system: HCT-15 colon
# HL-60(TB) leukemia = test system: HL-60(TB) leukemia
# HOP-62 NSCLC = test system: HOP-62 NSCLC
# HOP-92 NSCLC = test system: HOP-92 NSCLC
# HS 578T breast = test system: HS 578T breast
# HT29 colon = test system: HT29 colon
# IGROV1 ovarian = test system: IGROV1 ovarian
# K-562 leukemia = test system: K-562 leukemia
# KM12 colon = test system: KM12 colon
# LOX IMVI melanoma = test system: LOX IMVI melanoma
# M14 melanoma = test system: M14 melanoma
# MALME-3M melanoma = test system: MALME-3M melanoma
# MCF7 breast = test system: MCF7 breast
# MDA-MB-231 breast = test system: MDA-MB-231 breast
# MDA-MB-435 = test system: MDA-MB-435
# MOLT-4 leukemia = test system: MOLT-4 leukemia
# NCI-H226 lung = test system: NCI-H226 lung
# NCI-H23 lung = test system: NCI-H23 lung
# NCI-H460 lung = test system: NCI-H460 lung
# NCI-H522 lung = test system: NCI-H522 lung
# NCI/ADR-RES ovarian = test system: NCI/ADR-RES ovarian
# OVCAR-3 ovarian = test system: OVCAR-3 ovarian
# OVCAR-4 ovarian = test system: OVCAR-4 ovarian
# OVCAR-5 ovarian = test system: OVCAR-5 ovarian
# OVCAR-8 ovarian = test system: OVCAR-8 ovarian
# PC-3 prostate = test system: PC-3 prostate
# RPMI-8226 leukemia = test system: RPMI-8226 leukemia
# RXF 393 renal = test system: RXF 393 renal
# SF-268 CNS = test system: SF-268 CNS
# SF-295 CNS = test system: SF-295 CNS
# SF-539 CNS = test system: SF-539 CNS
# SK-MEL-2 melanoma = test system: SK-MEL-2 melanoma
# SK-MEL-28 melanoma = test system: SK-MEL-28 melanoma
# SK-MEL-5 melanoma = test system: SK-MEL-5 melanoma
# SK-OV-3 ovarian = test system: SK-OV-3 ovarian
# SN12C renal = test system: SN12C renal
# SNB-19 CNS = test system: SNB-19 CNS
# SNB-75 CNS = test system: SNB-75 CNS
# SR leukemia = test system: SR leukemia
# SW-620 colon = test system: SW-620 colon
# T-47D breast = test system: T-47D breast
# TK-10 renal = test system: TK-10 renal
# U251 CNS = test system: U251 CNS
# UACC-257 melanoma = test system: UACC-257 melanoma
# UACC-62 melanoma = test system: UACC-62 melanoma
# UO-31 renal = test system: UO-31 renal
smiles,measurement,setting,value
O=C(/C=C/c1cc(Cl)ccc1Cl)Nc1ncc(Cc2ccc(Cl)cc2)s1,GI50,786-0 renal,112 nM
same,TGI,786-0 renal,3240 nM
same,GI50,A498 renal,31.6 nM
same,TGI,A498 renal,235 nM
same,GI50,A549 NSCLC,99.2 nM
same,TGI,A549 NSCLC,13000 nM
same,GI50,ACHN renal,128 nM
same,TGI,ACHN renal,5290 nM
same,GI50,BT-549 breast,57.4 nM
same,TGI,BT-549 breast,379 nM
same,GI50,CAKI-1 renal,61.8 nM
same,TGI,CAKI-1 renal,2170 nM
same,GI50,CCRF-CEM leukemia,37.6 nM
same,TGI,CCRF-CEM leukemia,> 100000 nM
same,GI50,COLO 205 colon,82.3 nM
same,TGI,COLO 205 colon,378 nM
same,GI50,DU-145 prostate,300 nM
same,TGI,DU-145 prostate,15900 nM
same,GI50,EKVX NSCLC,158 nM
same,TGI,EKVX NSCLC,> 72900 nM
same,GI50,HCC-2998 colon,209 nM
same,TGI,HCC-2998 colon,10700 nM
same,GI50,HCT-116 colon,42 nM
same,TGI,HCT-116 colon,5850 nM
same,GI50,HCT-15 colon,44.8 nM
same,TGI,HCT-15 colon,> 37900 nM
same,GI50,HL-60(TB) leukemia,28.2 nM
same,TGI,HL-60(TB) leukemia,256 nM
same,GI50,HOP-62 NSCLC,80.3 nM
same,TGI,HOP-62 NSCLC,6030 nM
same,GI50,HOP-92 NSCLC,715 nM
same,TGI,HOP-92 NSCLC,5870 nM
same,GI50,HS 578T breast,52.4 nM
same,TGI,HS 578T breast,6180 nM
same,GI50,HT29 colon,86.8 nM
same,TGI,HT29 colon,1210 nM
same,GI50,IGROV1 ovarian,165 nM
same,TGI,IGROV1 ovarian,16300 nM
same,GI50,K-562 leukemia,35.2 nM
same,TGI,K-562 leukemia,> 100000 nM
same,GI50,KM12 colon,53.5 nM
same,TGI,KM12 colon,> 28100 nM
same,GI50,LOX IMVI melanoma,101 nM
same,TGI,LOX IMVI melanoma,11300 nM
same,GI50,M14 melanoma,40.5 nM
same,TGI,M14 melanoma,1490 nM
same,GI50,MALME-3M melanoma,866 nM
same,TGI,MALME-3M melanoma,43300 nM
same,GI50,MCF7 breast,83.3 nM
same,TGI,MCF7 breast,> 38800 nM
same,GI50,MDA-MB-231 breast,179 nM
same,TGI,MDA-MB-231 breast,9530 nM
same,GI50,MDA-MB-435,19.2 nM
same,TGI,MDA-MB-435,41.4 nM
same,GI50,MOLT-4 leukemia,122 nM
same,TGI,MOLT-4 leukemia,> 100000 nM
same,GI50,NCI-H226 lung,310 nM
same,TGI,NCI-H226 lung,12000 nM
same,GI50,NCI-H23 lung,67.3 nM
same,TGI,NCI-H23 lung,11000 nM
same,GI50,NCI-H460 lung,64 nM
same,TGI,NCI-H460 lung,1510 nM
same,GI50,NCI-H522 lung,33.3 nM
same,TGI,NCI-H522 lung,155 nM
same,GI50,NCI/ADR-RES ovarian,42.9 nM
same,TGI,NCI/ADR-RES ovarian,2280 nM
same,GI50,OVCAR-3 ovarian,113 nM
same,TGI,OVCAR-3 ovarian,1280 nM
same,GI50,OVCAR-4 ovarian,1590 nM
same,TGI,OVCAR-4 ovarian,10800 nM
same,GI50,OVCAR-5 ovarian,197 nM
same,TGI,OVCAR-5 ovarian,13800 nM
same,GI50,OVCAR-8 ovarian,69.5 nM
same,TGI,OVCAR-8 ovarian,1840 nM
same,GI50,PC-3 prostate,105 nM
same,TGI,PC-3 prostate,> 53700 nM
same,GI50,RPMI-8226 leukemia,67.4 nM
same,TGI,RPMI-8226 leukemia,16500 nM
same,GI50,RXF 393 renal,27.6 nM
same,TGI,RXF 393 renal,306 nM
same,GI50,SF-268 CNS,1170 nM
same,TGI,SF-268 CNS,52900 nM
same,GI50,SF-295 CNS,38.2 nM
same,TGI,SF-295 CNS,5130 nM
same,GI50,SF-539 CNS,32.8 nM
same,TGI,SF-539 CNS,202 nM
same,GI50,SK-MEL-2 melanoma,144 nM
same,TGI,SK-MEL-2 melanoma,4520 nM
same,GI50,SK-MEL-28 melanoma,1980 nM
same,TGI,SK-MEL-28 melanoma,53400 nM
same,GI50,SK-MEL-5 melanoma,299 nM
same,TGI,SK-MEL-5 melanoma,5190 nM
same,GI50,SK-OV-3 ovarian,78.7 nM
same,TGI,SK-OV-3 ovarian,17000 nM
same,GI50,SN12C renal,150 nM
same,TGI,SN12C renal,11700 nM
same,GI50,SNB-19 CNS,70.2 nM
same,TGI,SNB-19 CNS,31400 nM
same,GI50,SNB-75 CNS,39.1 nM
same,TGI,SNB-75 CNS,2470 nM
same,GI50,SR leukemia,32.4 nM
same,TGI,SR leukemia,> 100000 nM
same,GI50,SW-620 colon,45.4 nM
same,TGI,SW-620 colon,> 100000 nM
same,GI50,T-47D breast,14100 nM
same,TGI,T-47D breast,> 100000 nM
same,GI50,TK-10 renal,1300 nM
same,TGI,TK-10 renal,11100 nM
same,GI50,U251 CNS,39.5 nM
same,TGI,U251 CNS,3880 nM
same,GI50,UACC-257 melanoma,226 nM
same,TGI,UACC-257 melanoma,> 46900 nM
same,GI50,UACC-62 melanoma,50.7 nM
same,TGI,UACC-62 melanoma,18000 nM
same,GI50,UO-31 renal,142 nM
same,TGI,UO-31 renal,7360 nM
